The source of these data is patent US20260015350A1, “AZAQUINAZOLINE PAN-KRAS INHIBITORS” (Mirati Therapeutics, Inc., priority 2022, published 2026).

Test [1] deals with T1, KRas^G12C (Homo sapiens, UniProt P01116, G12C).
T1 construct: Biotinylated KRas (corresponding to amino acids 1-169, produced at Accelegan Inc.); biotin (biotinylated); purchased Accelegan Inc
The experiment in a line: KRas binding assay (TR-FRET tracer displacement), KRas G12C. To be noted: TR-FRET tracer displacement, KRas G12C.

Test [2] concerns the target T2, KRas^Q61H (Homo sapiens, UniProt P01116, Q61H).
T2 construct: Biotinylated KRas (corresponding to amino acids 1-169, produced at Accelegan Inc.); biotin (biotinylated); purchased Accelegan Inc
Kind of test: KRas binding assay (TR-FRET tracer displacement), KRas Q61H. The following applies: TR-FRET tracer displacement, KRas Q61H. In general terms: Time-resolved FRET reads energy transfer from a long-lived donor to a nearby acceptor.

Test [3] concerns the target T3, KRas^G12S (Homo sapiens, UniProt P01116, G12S).
T3 construct: Biotinylated KRas (corresponding to amino acids 1-169, produced at Accelegan Inc.); biotin (biotinylated); purchased Accelegan Inc
Kind of test: KRas binding assay (TR-FRET tracer displacement), KRas G12S. To be noted: TR-FRET tracer displacement, KRas G12S.

Test [4] relates to KRas-mediated phosphorylation of ERK in H727 cells. Kind of test: Inhibition of KRas-mediated phosphorylation of ERK (Cisbio HTRF pERK), H727 cells. To be noted: Homo sapiens, NCI-H727, H727 cells; HTRF pERK. The class given is cell-based. In a few lines:
(§1)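 H358, H727, H460 and AsPC-1 cells seeded at 6,000/well, treated 3 hrs with 10-dose 3-fold dilutions from 10 uM (0.8% DMSO); 0.2 uM trametinib as min control. Lysed 40 min at 4° C; lysate incubated 2 hrs at room temperature with d2/cryptate antibodies, HTRF read.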

Test [5] deals with T4, KRas^G12R (Homo sapiens, UniProt P01116, G12R).
T4 construct: Biotinylated KRas (corresponding to amino acids 1-169, produced at Accelegan Inc.); biotin (biotinylated); purchased Accelegan Inc
T4 sequence (P01116 1-169 isoform P01116-2 G12R): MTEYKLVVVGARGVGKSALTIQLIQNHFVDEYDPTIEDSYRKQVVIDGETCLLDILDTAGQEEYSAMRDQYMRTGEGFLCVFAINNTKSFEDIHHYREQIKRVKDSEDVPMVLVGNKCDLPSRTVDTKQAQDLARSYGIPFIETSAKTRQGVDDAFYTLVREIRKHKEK
Kind of test: KRas binding assay (TR-FRET tracer displacement), KRas G12R.

The target in test [6] is T5, KRas^WT (Homo sapiens, UniProt P01116).
T5 construct: Biotinylated KRas (corresponding to amino acids 1-169, produced at Accelegan Inc.); biotin (biotinylated); purchased Accelegan Inc
T5 sequence (P01116 1-169 isoform P01116-2): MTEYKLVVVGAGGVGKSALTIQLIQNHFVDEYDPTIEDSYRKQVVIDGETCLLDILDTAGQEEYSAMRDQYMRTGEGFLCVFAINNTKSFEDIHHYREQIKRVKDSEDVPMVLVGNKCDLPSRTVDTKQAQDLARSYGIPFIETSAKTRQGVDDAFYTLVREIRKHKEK
The experiment in a line: KRas binding assay (TR-FRET tracer displacement), KRas WT. To be noted: TR-FRET tracer displacement, KRas WT.

Test [7] addresses T6, KRas^G12V (Homo sapiens, UniProt P01116, G12V).
T6 construct: Biotinylated KRas (corresponding to amino acids 1-169, produced at Accelegan Inc.); biotin (biotinylated); purchased Accelegan Inc
Kind of test: KRas binding assay (TR-FRET tracer displacement), KRas G12V.

For test [8], the system named is KRas-mediated phosphorylation of ERK in AsPC-1 cells. Kind of test: Inhibition of KRas-mediated phosphorylation of ERK (Cisbio HTRF pERK), AsPC-1 cells. The class given is cell-based. The following applies: Homo sapiens, ASPC1, AsPC-1 cells; HTRF pERK. The method, boiled down: as §1
The target in test [9] is T7, KRas^G13D (Homo sapiens, UniProt P01116, G13D).
T7 construct: Biotinylated KRas (corresponding to amino acids 1-169, produced at Accelegan Inc.); biotin (biotinylated); purchased Accelegan Inc
T7 sequence (P01116 1-169 isoform P01116-2 G13D): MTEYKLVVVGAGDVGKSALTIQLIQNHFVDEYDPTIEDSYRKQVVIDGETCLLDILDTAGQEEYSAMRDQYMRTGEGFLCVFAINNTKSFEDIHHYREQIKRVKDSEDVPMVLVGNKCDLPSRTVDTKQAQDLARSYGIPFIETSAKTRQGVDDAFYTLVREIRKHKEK
Kind of test: KRas binding assay (TR-FRET tracer displacement), KRas G13D. To be noted: TR-FRET tracer displacement, KRas G13D.

Test [10] concerns the target T8, KRas^G12A (Homo sapiens, UniProt P01116, G12A).
T8 construct: Biotinylated KRas (corresponding to amino acids 1-169, produced at Accelegan Inc.); biotin (biotinylated); purchased Accelegan Inc
Kind of test: KRas binding assay (TR-FRET tracer displacement), KRas G12A. The following applies: TR-FRET tracer displacement, KRas G12A.

For test [11], the target named is T9, KRas^G12D (Homo sapiens, UniProt P01116, G12D).
T9 construct: Biotinylated KRas (corresponding to amino acids 1-169, produced at Accelegan Inc.); biotin (biotinylated); purchased Accelegan Inc
T9 sequence (P01116 1-169 isoform P01116-2 G12D): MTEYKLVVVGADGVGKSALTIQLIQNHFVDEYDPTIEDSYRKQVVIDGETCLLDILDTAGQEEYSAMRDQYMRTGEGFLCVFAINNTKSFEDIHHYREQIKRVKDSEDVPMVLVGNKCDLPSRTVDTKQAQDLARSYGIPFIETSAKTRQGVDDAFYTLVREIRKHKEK
The experiment in a line: KRas binding assay (TR-FRET tracer displacement), KRas G12D.

T1 sequence (P01116 1-169 isoform P01116-2 G12C): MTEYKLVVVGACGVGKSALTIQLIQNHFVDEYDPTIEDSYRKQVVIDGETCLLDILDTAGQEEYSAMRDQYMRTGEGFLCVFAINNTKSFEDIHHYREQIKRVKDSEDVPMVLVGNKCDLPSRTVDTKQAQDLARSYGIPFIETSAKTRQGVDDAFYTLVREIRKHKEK
T6 sequence (P01116 1-169 isoform P01116-2 G12V): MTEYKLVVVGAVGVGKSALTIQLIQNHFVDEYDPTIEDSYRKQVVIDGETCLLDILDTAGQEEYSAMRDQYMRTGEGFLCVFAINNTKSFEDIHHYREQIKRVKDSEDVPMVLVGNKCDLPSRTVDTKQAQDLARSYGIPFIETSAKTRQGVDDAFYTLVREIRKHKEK
T8 sequence (P01116 1-169 isoform P01116-2 G12A): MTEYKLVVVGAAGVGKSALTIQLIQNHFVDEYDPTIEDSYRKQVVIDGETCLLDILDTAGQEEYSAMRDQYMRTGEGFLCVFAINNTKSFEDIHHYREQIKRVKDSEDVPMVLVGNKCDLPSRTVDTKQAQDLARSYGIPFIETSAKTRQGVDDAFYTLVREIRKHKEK
T3 sequence (P01116 1-169 isoform P01116-2 G12S): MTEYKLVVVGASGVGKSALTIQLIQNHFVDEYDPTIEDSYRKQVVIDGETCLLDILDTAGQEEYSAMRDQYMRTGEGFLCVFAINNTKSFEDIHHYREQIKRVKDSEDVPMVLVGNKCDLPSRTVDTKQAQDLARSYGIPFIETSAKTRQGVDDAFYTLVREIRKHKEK
T2 sequence (P01116 1-169 isoform P01116-2 Q61H): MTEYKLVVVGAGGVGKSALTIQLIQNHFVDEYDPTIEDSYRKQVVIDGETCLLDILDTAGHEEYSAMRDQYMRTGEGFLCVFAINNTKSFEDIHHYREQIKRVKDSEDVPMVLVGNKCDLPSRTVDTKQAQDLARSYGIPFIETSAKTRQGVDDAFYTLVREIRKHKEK

What is called IC50 is the midpoint of a concentration-inhibition curve. With `CC1(O)COCCN(c2nc(OCC34CCCN3CCC4)nc3c(F)c(-c4cc(O)cc(Cl)c4C4CC4)ncc23)C1` (racemic) [Example 740, rac-(R)-4-(7-(3-chloro-2-cyclopropyl-5-hydroxyphenyl)-8-fluoro-2-((tetrahydro-1H-pyrrolizin-7a(5H)-yl)methoxy)pyrido[4,3-d]pyrimidin-4-yl)-6-methyl-1,4-oxazepan-6-ol], the IC50 in test [1] worked out at 7 nM; in test [2], 6 nM; in test [3], 9 nM; in test [4], 3160 nM; in test [5], 11 nM; in test [6], 9 nM. The IC50 worked out at 5 nM in test [7]; 2630 nM in [8]; 8 nM in [9]; 10 nM in [10]; 4 nM in [11].

For the compound `Cc1cc2[nH]ncc2c(-c2ncc3c(N4CC5CC(O)C(C5)C4)nc(OCC45CCCN4CCC5)nc3c2F)c1C` (stereo not drawn) [Example 725, 3-(7-(5,6-dimethyl-1H-indazol-4-yl)-8-fluoro-2-((tetrahydro-1H-pyrrolizin-7a(5H)-yl)methoxy)pyrido[4,3-d]pyrimidin-4-yl)-3-azabicyclo[3.2.1]octan-6-ol], the IC50 in [1] was 812 nM; in [2], 1210 nM; in test [3] it was 494 nM; in test [4], above 10000 nM; in [5], 441 nM; in [6] it was 965 nM. The IC50 in [7] was 410 nM; in [8], above 10000 nM; in test [9] it was 1120 nM; in [10], 763 nM; in test [11], 1610 nM.

Turning to `Cc1cc2[nH]ncc2c(-c2ncc3c(N4CC5C(=O)NC(=O)C5C4)nc(OCC45CCCN4CCC5)nc3c2F)c1C` (stereo not drawn) [Example 726, 5-(7-(5,6-dimethyl-1H-indazol-4-yl)-8-fluoro-2-((hexahydro-1H-pyrrolizin-7a-yl)methoxy)pyrido[4,3-d]pyrimidin-4-yl)tetrahydropyrrolo[3,4-c]pyrrole-1,3(2H,3aH)-dione], the IC50 was 208 nM in [1]; 177 nM in test [2]; 68 nM in test [3]; above 10000 nM in test [4]; 344 nM in test [5]; 145 nM in [6]. Also, the half-maximal inhibitory concentration (IC50) was 131 nM in [7]; above 10000 nM in [8]; 138 nM in [9]; 242 nM in test [10]; 58 nM in test [11].

Take `Cc1cc2[nH]ncc2c(-c2ncc3c(N4CCCC5(CC(O)C5)C4)nc(OCC45CCCN4CCC5)nc3c2F)c1C` (stereo not drawn) [Example 727, 6-(7-(5,6-dimethyl-1H-indazol-4-yl)-8-fluoro-2-((hexahydro-1H-pyrrolizin-7a-yl)methoxy)pyrido[4,3-d]pyrimidin-4-yl)-6-azaspiro[3.5]nonan-2-ol]: the IC50 in [1] is 421 nM; in test [2] it was 947 nM; in [3], 540 nM; in test [4] it was above 10000 nM; in test [5] it was 520 nM; in [6], 657 nM. In addition, the IC50 in test [7] is 333 nM; in [8], above 10000 nM; in test [9], 888 nM; in test [10], 516 nM; in test [11], 634 nM.

For `Cc1cc2[nH]ncc2c(-c2ncc3c(N4CCCC5(CNC(=O)N5)C4)nc(OCC45CCCN4CCC5)nc3c2F)c1C` (stereo not drawn) [Example 729, 7-(7-(5,6-dimethyl-1H-indazol-4-yl)-8-fluoro-2-((hexahydro-1H-pyrrolizin-7a-yl)methoxy)pyrido[4,3-d]pyrimidin-4-yl)-1,3,7-triazaspiro[4.5]decan-2-one], the 50% inhibitory concentration (IC50) in test [1] was 40 nM; in [2], 53 nM; in test [3], 40 nM; in [4] it was above 10000 nM; in test [5], 61 nM; in test [6], 45 nM. The IC50 in test [7] is 36 nM; in test [8] it was above 10000 nM; in test [9], 46 nM; in test [10] it was 48 nM; in test [11], 26 nM.

Consider `Cc1cc2[nH]ncc2c(-c2ncc3c(N4CCCn5nc(C(=O)N(C)C)cc5C4)nc(OCC45CCCN4CCC5)nc3c2F)c1C` [Example 730, 5-(7-(5,6-dimethyl-1H-indazol-4-yl)-8-fluoro-2-((hexahydro-1H-pyrrolizin-7a-yl)methoxy)pyrido[4,3-d]pyrimidin-4-yl)-N,N-dimethyl-5,6,7,8-tetrahydro-4H-pyrazolo[1,5-a][1,4]diazepine-2-carboxamide], for which the IC50 is 131 nM in test [1]; 444 nM in [2]; 113 nM in test [3]; above 10000 nM in test [4]; 203 nM in [5]; 343 nM in [6]. Also, the IC50 in test [7] was 75 nM; in [8], above 10000 nM; in test [9] it was 513 nM; in [10], 251 nM; in test [11] it was 35 nM.

Consider `Cc1cc2[nH]nnc2c(-c2ncc3c(N4CC5C(=O)NC(=O)C5C4)nc(OCC45CCCN4CCC5)nc3c2F)c1C` (stereo not drawn) [Example 833, 5-(7-(5,6-dimethyl-1H-benzo[d][1,2,3]triazol-4-yl)-8-fluoro-2-((tetrahydro-1H-pyrrolizin-7a(5H)-yl)methoxy)pyrido[4,3-d]pyrimidin-4-yl)tetrahydropyrrolo[3,4-c]pyrrole-1,3(2H,3aH)-dione], for which the half-maximal inhibitory concentration (IC50) came out at 4490 nM in [1]; 3670 nM in test [2]; 1860 nM in [3]; 9160 nM in test [5]; 3830 nM in [6]; 3540 nM in test [7]. Further, the results for the IC50 in [9], in test [10] and in test [11] were 2820 nM, 5130 nM and 1080 nM, respectively.

Regarding `Cc1cc2[nH]nnc2c(-c2ncc3c(N4CCCn5nc(C(=O)N(C)C)cc5C4)nc(OCC45CCCN4CCC5)nc3c2F)c1C` [Example 839, 5-(7-(5,6-dimethyl-1H-benzo[d][1,2,3]triazol-4-yl)-8-fluoro-2-((tetrahydro-1H-pyrrolizin-7a(5H)-yl)methoxy)pyrido[4,3-d]pyrimidin-4-yl)-N,N-dimethyl-5,6,7,8-tetrahydro-4H-pyrazolo[1,5-a][1,4]diazepine-2-carboxamide], the IC50 in test [1] turned out to be 1630 nM; in test [2] it was 3810 nM; in test [3], 1260 nM; in test [5], 2910 nM; in test [6], 3780 nM; in test [7], 743 nM. In addition, the IC50 in test [9] is 4060 nM; in test [10], 2380 nM; in [11], 153 nM.

On to `Cc1cc2[nH]nnc2c(-c2ncc3c(N4CCCC5(CNC(=O)N5)C4)nc(OCC45CCCN4CCC5)nc3c2F)c1C` (stereo not drawn) [Example 856, 7-(7-(5,6-dimethyl-1H-benzo[d][1,2,3]triazol-4-yl)-8-fluoro-2-((tetrahydro-1H-pyrrolizin-7a(5H)-yl)methoxy)pyrido[4,3-d]pyrimidin-4-yl)-1,3,7-triazaspiro[4.5]decan-2-one], for which the IC50 worked out at 2060 nM in [1]; 2830 nM in test [2]; 2510 nM in [3]; 4270 nM in [5]; 2820 nM in test [6]; 2200 nM in [7]. The IC50 in test [9] came to 2470 nM; in [10], 2230 nM; in test [11], 1190 nM.

In the case of `Cc1cc2[nH]ccc2c(-c2ncc3c(N4CCC[C@@](C)(O)C4)nc(OCC45CCCN4CCC5)nc3c2F)c1C` [Example 871, (3R)-1-(7-(5,6-dimethyl-1H-indol-4-yl)-8-fluoro-2-((tetrahydro-1H-pyrrolizin-7a(5H)-yl)methoxy)pyrido[4,3-d]pyrimidin-4-yl)-3-methylpiperidin-3-ol], the half-maximal inhibitory concentration (IC50) in test [1] is 3820 nM; in test [2], 4530 nM; in test [3], 4440 nM; in [5], 8950 nM; in test [6] it was 3420 nM; in [7] it was 4410 nM. The figures for the half-inhibitory concentration (IC50) in test [9], in [10] and in [11] were 2720 nM, 3690 nM and 2670 nM, respectively.

`Cc1cc2[nH]cnc2c(-c2ncc3c(N4CCC[C@@](C)(O)C4)nc(OCC45CCCN4CCC5)nc3c2F)c1C` [Example 888, (3R)-1-(7-(5,6-dimethyl-1H-benzo[d]imidazol-4-yl)-8-fluoro-2-((tetrahydro-1H-pyrrolizin-7a(5H)-yl)methoxy)pyrido[4,3-d]pyrimidin-4-yl)-3-methylpiperidin-3-ol]: the IC50 turned out to be 199 nM in test [1]; 539 nM in test [2]; 201 nM in test [3]; 62300 nM in test [5]; 579 nM in test [6]; 58300 nM in [7]. Moreover, the IC50 in [9] came to 567 nM; in [10] it was 375 nM; in [11], 40700 nM.
